Laboratory results reported in US20030087753A1, “System for microbial control of a fluid” (priority 2001, published 2003).

Tests used:
[1] = Adsorption and release of various antibiotics on ultra-stable zeolite Y (USY); format: physicochemical; conditions: for Amount antibiotic in 20 mg zeolite/ml: USY suspended to 20 mg/ml; for Release concentration of antibiotic: dried USY suspended to 20 mg/ml in buffer; for Amount adsorbed antibiotic/mg zeolite: ultra-stable zeolite Y (USY), amount calculated
Description: This example illustrates adsorption and release of various antibiotics. Ultra-stable zeolite Y (USY) was incubated with various antibiotics and the amounts absorbed to the zeolite were calculated. Then the zeolite was dried and suspended to 20 mg/ml in buffer and the concentrations of released antibiotics in the solutions were determined.

[2] = Release of cephalothin from ultra-stable zeolite Y (USY) at pH 2.5 and pH 8.0; format: physicochemical; conditions: 20 mg/ml USY; 10 mM phosphate buffer pH 8.0 after 10 mM glycin pH 2.5
Description: This example illustrates release of cephalothin from ultra-stable zeolite Y (USY) and is described with reference to the diagram in FIG. 10.
Ultra-stable zeolite Y (USY) was incubated with the antibiotic cephalothin 5 mg/ml after which the zeolite was sucked dry and further dried in warm closet. Zeolite with adsorbed cephalothin was suspended repeatedly to 20 mg/ml in 10 mM glycin pH 2.5 (▪) and the concentration of cephalothin in the solutions was determined by absorbency measurement at 260 nm. Then the zeolite was suspended in 10 mM phosphate buffer pH 8.0 (●).

[3] = tested on: Staphylococcus aureus (ATCC 6538); assay: Growth inhibition of Staphylococcus aureus by m-cresol adsorbed on zeolite USY (Eur. Pharm. efficacy of antimicrobial preservation); format: cell-based; conditions: 5 mg m-cresol/ml dissolved in water, positive control
Description: This example illustrates growth inhibition of Staphylococcus aureus (ATCC 6538), FU ml-1) after incubation with m-cresol adsorbed on zeolite. Test according to Eur. Pharm. nd Ed. VIII 14 (1992). Efficacy of antimicrobial preservation.
Ultra-stable zeolite Y (USY, 63-125 μm particles) was incubated with m-cresol […] after which the zeolite was sucked dry and further dried in warm closet overnight. Zeolite with adsorbed m-cresol was then suspended in PBS and was incubated with Staphylococcus aureus at 37° C. The concentration of m-cresol in the solution after the suspension of zeolite was 0.14 mg/ml.

Row | Compound | Amount antibiotic in 20 mg zeolite/ml [1] | Release concentration of antibiotic [1] | Amount adsorbed antibiotic/mg zeolite [1] | also measured
1 | O=C(N[C@H](CO)[C@H](O)c1ccc([N+](=O)[O-])cc1)C(Cl)Cl [Chloramphemicol] | 2.5 mg/mL | 7 µg/mL | 0.125 mg | 
2 | CN(C)[C@@H]1C(=O)C(C(N)=O)=C(O)[C@@]2(O)C(=O)C3=C(O)c4c(O)cccc4[C@@](C)(O)[C@H]3C[C@@H]12 [Tetracyclin] | 1.8 mg/mL | 220 µg/mL | 0.09 mg | 
3 | CC(=O)OCC1=C(C(=O)O)N2C(=O)[C@@H](NC(=O)Cc3cccs3)[C@H]2SC1 [Cephalothin] | 4.2 mg/mL | 4.6 µg/mL | 0.21 mg | release of cephalothin from the zeolite on change of pH [2]: increased release
4 | CC1(C)S[C@@H]2[C@H](NC(=O)[C@H](N)c3ccccc3)C(=O)N2[C@H]1C(=O)O [Ampicilin] | 2.8 mg/mL | 400 µg/mL | 0.14 mg | 
5 | Cc1cccc(O)c1 [Free m-cresol, m-cresol] |  |  |  | CFU/ml ([3]; incubation time 0 h): 5.9 × 10^6 CFU/ml; CFU/ml ([3]; incubation time 2 h): 1.2 × 10^2 CFU/ml; CFU/ml ([3]; incubation time 4 h): 24 CFU/ml; CFU/ml ([3]; incubation time 8 h): 3 CFU/ml; CFU/ml ([3]; incubation time 24 h): 0 CFU/ml; CFU/ml ([3]; incubation time 48 h): 0 CFU/ml
6 | [H]/N=C(/N)N[C@H]1[C@H](O)[C@@H](O)[C@H](O[C@@H]2O[C@@H](C)[C@](O)(C=O)[C@H]2O[C@@H]2O[C@@H](CO)[C@H](O)[C@@H](O)[C@@H]2NC)[C@@H](N/C(N)=N\[H])[C@@H]1O [Streptomycin] | 9.6 mg/mL | 4800 µg/mL | 0.48 mg | 
7 | Gentamycin | 3.6 mg/mL |  | 0.18 mg | 
